According to ChEMBL document CHEMBL1201862, “PubChem BioAssay data set” (2004):
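Values below derive from 48-hour exposures of cells grown in 96-well plates, with endpoints linearly interpolated between the two concentrations bracketing the appropriate inhibition level. GI50 is the concentration that inhibits growth by half.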 Activity calls are given as the source filed them. No stated cut-off is given here; in the data, active = GI50 up to about 1.1 µM and inactive = higher.

Tests used:
Assay in all cases: NCI-60 cell line screen, 48 h
[1] = system: ACHN
[2] = system: CAKI-1
[3] = system: DLD-1
[4] = system: EKVX
[5] = system: HCT-116
[6] = system: HCT-15
[7] = system: HL-60
[8] = system: HOP-62
[9] = system: K562
[10] = system: KM12
[11] = system: LXFL 529
[12] = system: Malme-3M
[13] = system: NCI-H226
[14] = system: OVCAR-8
[15] = system: SF-295
[16] = system: TK-10
[17] = system: UACC-257
[18] = system: UO-31
[19] = system: HOP-18
[20] = system: SNB-19

| SMILES | GI50 [1] | GI50 [2] | GI50 [3] | GI50 [4] | GI50 [5] | GI50 [6] [µM] | GI50 [7] | GI50 [8] | GI50 [9] | GI50 [10] | GI50 [11] | GI50 [12] | GI50 [13] | GI50 [14] | GI50 [15] | GI50 [16] | GI50 [17] | GI50 [18] | GI50 [19] | GI50 [20] |
| --- | --- | --- | --- | --- | --- | --- | --- | --- | --- | --- | --- | --- | --- | --- | --- | --- | --- | --- | --- | --- |
| CN(C)C(=O)OC1C(=O)N(C)c2ccc(Cl)cc2C2(c3ccccc3)N1C2(Cl)Cl (stereo not drawn) | > 100 µM (inactive) | > 100 µM (inactive) | 55.1 µM (inactive) | 44.4 µM (inactive) | 62.7 µM (inactive) | 60.4 | 29.4 µM (inactive) | 54.8 µM (inactive) | 56.6 µM (inactive) | 62.1 µM (inactive) | > 100 µM (inactive) | > 100 µM (inactive) | 38.7 µM (inactive) | 95.5 µM (inactive) | 77.1 µM (inactive) | 56.5 µM (inactive) | 66.8 µM (inactive) | 49.2 µM (inactive) | – | – |
| COc1ccc(/C(Cl)=C(\C=O)c2ccc(Cl)c(Cl)c2)cc1OC | 4.56 µM (inactive) | 5.08 µM (inactive) | 4.46 µM (inactive) | 9.53 µM (inactive) | 4.18 µM (inactive) | 4.34 | 2.7 µM (inactive) | 16.3 µM (inactive) | 3.87 µM (inactive) | – | 3.55 µM (inactive) | 18.3 µM (inactive) | 4.84 µM (inactive) | 4.02 µM (inactive) | 3.79 µM (inactive) | 19 µM (inactive) | – | 7.33 µM (inactive) | 6.76 µM (inactive) | 14.9 µM (inactive) |
| CCOC(=O)C(C)N1C(=O)c2ccccc2S1(=O)=O (stereo not drawn) | – | > 100 µM (inactive) | > 100 µM (inactive) | > 100 µM (inactive) | > 100 µM (inactive) | > 100 | > 100 µM (inactive) | > 100 µM (inactive) | > 100 µM (inactive) | > 100 µM (inactive) | – | > 100 µM (inactive) | > 100 µM (inactive) | > 100 µM (inactive) | > 100 µM (inactive) | – | > 100 µM (inactive) | > 100 µM (inactive) | > 100 µM (inactive) | > 100 µM (inactive) |
| CCNc1nnc(-c2nsc3ccccc23)s1 | 62.4 µM (inactive) | – | – | 51.9 µM (inactive) | 24.7 µM (inactive) | > 100 | > 100 µM (inactive) | 33.7 µM (inactive) | > 100 µM (inactive) | 59.7 µM (inactive) | 94.2 µM (inactive) | – | – | 57.8 µM (inactive) | – | > 100 µM (inactive) | > 100 µM (inactive) | 24.8 µM (inactive) | 11.5 µM (inactive) | 16.3 µM (inactive) |
| CN(C)c1ccc(/C=C2\C[C@H]3[C@@H]4CCc5cc(O)ccc5[C@H]4CC[C@]3(C)C2=O)cc1 | 56.1 µM (inactive) | > 100 µM (inactive) | – | 32.5 µM (inactive) | – | > 100 | – | 30.5 µM (inactive) | > 100 µM (inactive) | > 100 µM (inactive) | – | > 100 µM (inactive) | 25.1 µM (inactive) | 95.1 µM (inactive) | 32.6 µM (inactive) | > 100 µM (inactive) | > 100 µM (inactive) | > 100 µM (inactive) | – | > 100 µM (inactive) |
